Measured values: BindingDB's records for doi:10.1021/acs.jmedchem.8b00401 (2019)

Columns and labels:
[1] = molecular target: Sodium-dependent dopamine transporter (Homo sapiens, UniProt Q01959); experiment: Displacement of [3H]-WIN35428 from recombinant human DAT expressed in HEK cell membranes after 90 mins by scintillation counting method
D(3) dopamine receptor = D(3) dopamine receptor (Homo sapiens, UniProt P35462); experiment: Displacement of [3H]-N-methylspiperone from recombinant human D3R expressed in HEK cell membranes after 90 mins by scintillation counting method
Sequence of D(3) dopamine receptor (P35462 as listed by the source): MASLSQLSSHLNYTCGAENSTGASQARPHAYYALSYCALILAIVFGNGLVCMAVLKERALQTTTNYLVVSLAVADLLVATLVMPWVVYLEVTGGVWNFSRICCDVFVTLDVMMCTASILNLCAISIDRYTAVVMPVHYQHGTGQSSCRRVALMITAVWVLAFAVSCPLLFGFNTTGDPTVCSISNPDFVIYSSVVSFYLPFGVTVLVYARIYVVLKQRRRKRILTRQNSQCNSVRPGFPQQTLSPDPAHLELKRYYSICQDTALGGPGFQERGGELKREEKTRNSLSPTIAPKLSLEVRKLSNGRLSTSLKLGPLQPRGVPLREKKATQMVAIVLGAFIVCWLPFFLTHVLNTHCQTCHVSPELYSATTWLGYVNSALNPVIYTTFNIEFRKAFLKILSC

Sequence of Sodium-dependent dopamine transporter (Q01959 whole entry): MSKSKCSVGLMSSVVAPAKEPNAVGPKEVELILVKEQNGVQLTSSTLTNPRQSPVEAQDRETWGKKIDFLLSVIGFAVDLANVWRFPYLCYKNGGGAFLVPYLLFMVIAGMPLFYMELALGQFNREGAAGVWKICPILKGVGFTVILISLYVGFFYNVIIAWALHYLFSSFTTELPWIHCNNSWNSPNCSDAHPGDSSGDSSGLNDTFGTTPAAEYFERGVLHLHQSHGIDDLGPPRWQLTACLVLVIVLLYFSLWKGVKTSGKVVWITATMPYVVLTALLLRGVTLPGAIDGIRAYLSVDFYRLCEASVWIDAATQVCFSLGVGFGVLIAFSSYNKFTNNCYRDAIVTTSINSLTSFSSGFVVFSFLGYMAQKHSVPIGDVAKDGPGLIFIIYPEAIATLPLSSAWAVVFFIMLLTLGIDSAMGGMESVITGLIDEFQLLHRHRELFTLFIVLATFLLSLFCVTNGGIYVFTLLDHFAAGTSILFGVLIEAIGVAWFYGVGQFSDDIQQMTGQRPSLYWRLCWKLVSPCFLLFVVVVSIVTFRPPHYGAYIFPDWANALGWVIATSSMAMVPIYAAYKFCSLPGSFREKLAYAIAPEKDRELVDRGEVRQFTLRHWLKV

CCCCCCCCCCC[C@@H]1CCN[C@H](C(=O)NCC(O)CO)C1 (some centres not stated)
Ki [1]: 1.8 µM
Ki (D(3) dopamine receptor): 4.7 µM
